Key:
MPNST cells = assay: Colony formation assay; assay type: cell-based, human; conditions: for IC50: Homo sapiens, 24 h
[1] = patients, cited from earlier work
[2] = human plasma; cited from earlier work
[3] = test system: dedifferentiated liposarcoma cell lines, with amplified CDK4; assay: Sensitivity of liposarcoma cell lines; assay type: cell-based, human; conditions: prior observations, data not shown
[4] = Flavopiridol plasma pharmacokinetics in phase I trial; assay type: in vivo, human
CDK6 = conditions: cited from earlier work
CDK9 = conditions: cited from earlier work
CDK4 = conditions: cited from earlier work
CDK2 = conditions: cited from earlier work

SMILES | IC50 (MPNST cells) | MTD, single agent bolus schedule ([1]; approximate) | MTD, single agent divided dose flavopiridol therapy ([1]; bolus followed by infusion) | protein binding in plasma [2] | sensitivity to flavopiridol [3] | time point at which Cmax was observed ([4]; first time point analyzed in each schedule) | Cmax ([4]; human, plasma, intravenous, Mean Cmax, cycle 1, cohort 8 (doxorubicin 60, flavopiridol 90 (50/40) mg/m^2), n 4) | inhibition of CDK6 (CDK6) | inhibition of CDK9 (CDK9) | inhibition of CDK4 (CDK4) | colony formation (percentage of untreated controls) (MPNST cells; MPNST cells, flavopiridol alone 150 nM 24 hours, colonies after 10 days) | inhibition of CDK2 (CDK2)
COc1cccc2c1C(=O)c1c(O)c3c(c(O)c1C2=O)C[C@@](O)(C(=O)CO)C[C@@H]3O[C@H]1C[C@H](N)[C@H](O)[C@H](C)O1 [doxorubicin] | 15 nM |  |  |  |  |  |  |  |  |  |  | 
CN1CC[C@H](c2c(O)cc(O)c3c(=O)cc(-c4ccccc4Cl)oc23)[C@H](O)C1 [flavopiridol] | 150 nM | ~70 mg/m^2 | 90 mg/m^2 | 90% | highly sensitive | 0.5 h | 3.33 µM | nanomolar concentrations | nanomolar concentrations | nanomolar concentrations | 59% | nanomolar concentrations
